From patent US10532977B2, “Small molecule inhibitors of protein tyrosine phosphatases and uses thereof” (Indiana University Research and Technology Corporation, priority 2015, dated 2020)
“Also recorded” adds a separate entry of the source. Each block holds one compound with its values, some of them ahead of it.

Tests used:
SHP2 [1] = molecular target: T1, SHP2 (Homo sapiens, UniProt Q06124); assay: SHP2 inhibition, pNPP substrate; type: biochemical; details: for mode of SHP2 inhibition: pNPP as substrate
T1 sequence (Q06124 224-528): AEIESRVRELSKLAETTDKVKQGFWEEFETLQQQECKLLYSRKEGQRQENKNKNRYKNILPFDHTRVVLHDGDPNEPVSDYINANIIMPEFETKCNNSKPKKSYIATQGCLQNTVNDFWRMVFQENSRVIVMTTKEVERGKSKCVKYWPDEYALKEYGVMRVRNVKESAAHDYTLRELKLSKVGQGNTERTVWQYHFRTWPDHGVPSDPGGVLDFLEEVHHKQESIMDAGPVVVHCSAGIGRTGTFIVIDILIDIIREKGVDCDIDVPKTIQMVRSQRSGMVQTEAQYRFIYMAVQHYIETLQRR

[2] = Stability in buffer solutions by LC-MS; type: physicochemical
Method: (§1) Agilent Technologies 6130 quadrupole LC-MS instrument was used for the LC-MS studies. A C18 reserved phase column (phenomenex, 50×4.6 mm) was used as stationary phase, water and methanol (both containing 0.1% formic acid) were used as mobile phase (gradient: 0-100% methanol, flow 0 8 ml/min, run time 15 minutes), and UV absorbance at the fixed wavelength of 254 nm and positive and negative ESI-MS data were recorded. The sample was adjusted to have a concentration at 0.1 mg/mL, and the injection volume of each sample was 0.2 μL. The retention time and corresponding ESI-MS data were used as identity of molecules.

SHP2/R362A = SHP2/R362A (Homo sapiens, UniProt Q06124, R362A); assay: SHP2/R362A mutant inhibition, pNPP substrate; type: biochemical; details: vs wild-type SHP2
Method: Protein expression and purification. […] These proteins were expressed in E. coli BL21(DE3) and purified with Ni-NTA resin (Qiagen). The SHP2 catalytic domain (residues 262-528) used for crystallization was expressed in E. coli BL21(DE3) and purified by Ni-NTA agarose (Qiagen) followed by sequential chromatography of HiPrep 26 desalting column (GE Healthcare), and cation exchange column packed with SP sepharose (GE Healthcare). Protein purity was determined to be greater than 95% by SDS-PAGE and Coomassie blue staining.
Enzyme kinetics and inhibition studies. The SHP2 phosphatase activity was assayed in 96-well plates using pNPP as a substrate at 25° C. in 50 mM 3,3-dimethylglutarate (DMG) buffer (pH=7.0), containing 1 mM EDTA with an ionic strength of 0.15 M adjusted by NaCl. The FDA-approved drug collection or the SPAA based libraries were screened in a 96-well format at two different compound concentrations (10 and 20 μM for FDA drugs and 10 and 1 μM for the SPAA libraries). […] The amount of product, p-nitrophenol, was determined from the absorbance at 405 nm detected by a Spectra MAX340 microplate spectrophotometer (Molecular Devices) using a molar extinction coefficient of 18,000 M^−1 cm^−1. […] The Michaelis-Menten kinetic parameters kcat and Km were determined from a direct fit of the velocity versus substrate concentration data to Michaelis-Menten equation using SigmaPlot program.

SHP2 [3] = molecular target: SHP2 (Homo sapiens, UniProt Q06124); assay: Covalent adduct formation with SHP2, QTOF ESI-MS / LC-MS; details: pH 7, cefsulodin 3 hours, PVS 10 minutes
Method: Characterization of cefsulodin-mediated SHP2 inhibition by Q-TOF ESI-MS, LC-MS, and HPLC. Agilent 6520 Accurate-Mass was used for the Q-TOF ESI-MS studies. Water and acetonitrile (both containing 0.1% formic acid) were used as eluent (80% water, flow 50 μL/min, run time 5 minutes). ESI positive mode was used with mass range from 300 to 1700, the gas temperature was 325° C., and vaporizer temperature was: […] The sample was adjusted to have a concentration at 0.1 mg/mL, the injection volume of each sample was 1 μL. Mass hunter software was used for protein deconvolution data analysis to calculate the molecular weight of the protein.
as §1

PEST = PEST (Homo sapiens, UniProt Q05209); assay: PEST inhibition, pNPP substrate; type: biochemical
Laforin = molecular target: T2, Laforin (Homo sapiens, UniProt O95278); assay: Laforin inhibition, pNPP substrate; type: biochemical
T2 sequence (O95278 1-331): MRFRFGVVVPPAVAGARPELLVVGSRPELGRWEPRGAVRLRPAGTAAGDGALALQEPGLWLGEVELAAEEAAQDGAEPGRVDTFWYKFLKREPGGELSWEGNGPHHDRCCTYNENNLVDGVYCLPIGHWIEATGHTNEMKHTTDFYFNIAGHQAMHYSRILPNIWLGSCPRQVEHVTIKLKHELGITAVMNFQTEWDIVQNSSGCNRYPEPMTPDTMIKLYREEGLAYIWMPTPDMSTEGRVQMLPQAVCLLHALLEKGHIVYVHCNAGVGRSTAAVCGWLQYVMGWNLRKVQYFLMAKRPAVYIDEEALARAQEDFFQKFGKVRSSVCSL

LMWPTP = LMWPTP (Homo sapiens, UniProt P24666); assay: biochemical
SKBR3 cells = assay: SKBR3 cell growth and ERK1/2 in Matrigel; type: cell-based, human; details: 5 days
Method: SHP2 inhibitor 2 effects on cell growth in Matrigel. Approximately 300,000 SKBR3 cells were seeded into 150 µL of growth factor reduced Matrigel (BD) that was then covered with 2 mLs of media containing either 20 µL vehicle (DMSO) or the indicated concentrations of compound 2. Cells were then imaged at 24-hour intervals using a NIKON SMZ1500 stereomicroscope. After 5 days the cells were recovered from the Matrigel by the following method. Media was aspirated and cells were washed with 500 µL of cold PBS. 150 µL of RIPA lysis buffer supplemented with ProteCEASE-50. EDTA Free protease inhibitors (GBiosciences) was added to the Matrigel. Cells were scraped into a slurry and instantly frozen using dry ice for 5 minutes. After thawing tubes were spun down at 4° C. for 10 minutes at 14K rpm. Proteins were then resolved by SDS-PAGE and the relative levels of total and phospho-ERK1/2 were detected by immunoblot analysis.

[4] = test system: EGF-mediated ERK1/2 phosphorylation; assay: EGF-mediated ERK1/2 phosphorylation, immunoblot, H1975 cells; type: cell-based, human; details: compound 7 at 40 μM
Method: (§2) Cell proliferation and immunoblot analysis. Human non-small cell lung carcinoma cell line H1975 was cultured at 37° C. and 5% CO2 in RPMI-1640 (Corning) supplemented with 10% fetal bovine serum (HyClone). Human breast cancer cell line MDA-MB-231 was cultured in DMEM supplemented with 10% fetal bovine serum. For cell proliferation assay, 2˜3×10^3 cells were seeded in each well of 96-well plates. After treating cells with compounds for 2 days, cells were incubated with 50 µg/ml MTT (3-(4,5-Dimethylthiazol-2-yl)-2,5-diphenyltetrazolium bromide) for ˜3-4 hours. Then, the culture medium was removed, DMSO was added to dissolve the formazan crystals. Wells containing only media were used for background correction. The optical density was measured spectrophotometrically at 540 nm. For signaling analysis, cells were serum-starved overnight followed by treatment with vehicle or compounds for 3 hours, and then either left un-stimulated or stimulated with 5 μg/ml EGF or 10 nM PMA (Sigma) for indicated time. Cells were lysed and the lysates were electrophoresed on a 10% polyacrylamide gel, and then transferred to a nitrocellulose membrane, and probed with anti-phospho-ERK1/2 and anti-ERK1/2 (Cell Signaling) antibodies followed by incubation with horseradish peroxidase-conjugated secondary antibodies. […]

[5] = test system: PMA-induced ERK1/2 phosphorylation; assay: PMA-induced ERK1/2 phosphorylation, immunoblot; type: cell-based, human
Method: as §2

CD45 = CD45 (Homo sapiens, UniProt P08575); assay: CD45 inhibition, pNPP substrate; type: biochemical; details: pNPP at Km, pH 7.0, 25° C.
VHZ = molecular target: T3, VHZ (Homo sapiens, UniProt Q9BVJ7); assay: VHZ inhibition, pNPP substrate; type: biochemical; details: pNPP at Km, pH 7.0, 25° C.
T3 construct: made in house

HePTP = HePTP (Homo sapiens, UniProt P35236); assay: HePTP inhibition, pNPP substrate; type: biochemical; details: pNPP at Km, pH 7.0, 25° C.
FAP1 = FAP1 (Homo sapiens, UniProt Q12923); assay: FAP1 inhibition, pNPP substrate; type: biochemical; details: pH 7
Ssu72 = molecular target: T4, Ssu72 (Homo sapiens, UniProt Q9NP77); assay: Ssu72 inhibition, pNPP substrate; type: biochemical; details: pH 7
T4 construct: made in house

LAR = LAR (Homo sapiens, UniProt P10586); assay: LAR inhibition, pNPP substrate; type: biochemical; details: pNPP at Km, pH 7.0, 25° C.
SHP1 = SHP1 (Homo sapiens, UniProt P29350); assay: SHP1 inhibition, pNPP substrate; type: biochemical; details: pNPP at Km, pH 7.0, 25° C.
CDC14A = CDC14A (Homo sapiens, UniProt Q9UNH5); assay: CDC14A inhibition, pNPP substrate; type: biochemical; details: pNPP at Km, pH 7.0, 25° C.
PTP1B = PTP1B (Homo sapiens, UniProt P18031); assay: PTP1B inhibition, pNPP substrate; type: biochemical; details: pNPP at Km, pH 7.0, 25° C.
PP5 = PP5 (Homo sapiens, UniProt P53041); assay: PP5 inhibition, pNPP substrate; type: biochemical, mammalian; details: pNPP at Km, pH 7.0, 25° C.
PTPα = PTPα (Homo sapiens, UniProt P18433); assay: PTPα inhibition, pNPP substrate; type: biochemical; details: pNPP at Km, pH 7.0, 25° C.
MKP3 = MKP3 (Homo sapiens, UniProt Q16828); assay: MKP3 inhibition, pNPP substrate; type: biochemical; details: pH 7
PTPβ = PTPβ (Homo sapiens, UniProt P23467); assay: PTPβ inhibition, pNPP substrate; type: biochemical, mammalian; details: pNPP at Km, pH 7.0, 25° C.
PTPε = PTPε (Homo sapiens, UniProt P23469); assay: PTPε inhibition, pNPP substrate; type: biochemical, mammalian; details: pNPP at Km, pH 7.0, 25° C.
Meg2 = Meg2 (Homo sapiens, UniProt P43378); assay: Meg2 inhibition, pNPP substrate; type: biochemical; details: pNPP at Km, pH 7.0, 25° C.
TcPTP = TcPTP (Homo sapiens, UniProt P17706); assay: TcPTP inhibition, pNPP substrate; type: biochemical; details: pH 7
PTPγ = PTPγ (Homo sapiens, UniProt P23470); assay: PTPγ inhibition, pNPP substrate; type: biochemical; details: pNPP at Km, pH 7.0, 25° C.
PTPσ = PTPσ (Homo sapiens, UniProt Q13332); assay: PTPσ inhibition, pNPP substrate; type: biochemical; details: pH 7
VHR = VHR (Homo sapiens, UniProt P51452); assay: VHR inhibition, pNPP substrate; type: biochemical; details: pNPP at Km, pH 7.0, 25° C.
LYP = LYP (Homo sapiens, UniProt Q9Y2R2); assay: LYP inhibition, pNPP substrate; type: biochemical; details: pNPP at Km, pH 7.0, 25° C.
PTPμ = PTPμ (Homo sapiens, UniProt P28827); assay: PTPμ inhibition, pNPP substrate; type: biochemical, mammalian; details: pNPP at Km, pH 7.0, 25° C.

Chain of SHP2/R362A (Q06124 224-528 R362A): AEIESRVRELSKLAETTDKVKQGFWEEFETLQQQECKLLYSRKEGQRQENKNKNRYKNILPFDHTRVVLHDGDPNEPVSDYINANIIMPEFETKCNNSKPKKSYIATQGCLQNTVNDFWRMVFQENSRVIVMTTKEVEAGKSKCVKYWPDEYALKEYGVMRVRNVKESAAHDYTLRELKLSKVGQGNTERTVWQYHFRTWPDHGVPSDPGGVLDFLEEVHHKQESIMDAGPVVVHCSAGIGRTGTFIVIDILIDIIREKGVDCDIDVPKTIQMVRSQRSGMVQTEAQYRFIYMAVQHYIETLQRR
Chain of PTPα (P18433 20-802): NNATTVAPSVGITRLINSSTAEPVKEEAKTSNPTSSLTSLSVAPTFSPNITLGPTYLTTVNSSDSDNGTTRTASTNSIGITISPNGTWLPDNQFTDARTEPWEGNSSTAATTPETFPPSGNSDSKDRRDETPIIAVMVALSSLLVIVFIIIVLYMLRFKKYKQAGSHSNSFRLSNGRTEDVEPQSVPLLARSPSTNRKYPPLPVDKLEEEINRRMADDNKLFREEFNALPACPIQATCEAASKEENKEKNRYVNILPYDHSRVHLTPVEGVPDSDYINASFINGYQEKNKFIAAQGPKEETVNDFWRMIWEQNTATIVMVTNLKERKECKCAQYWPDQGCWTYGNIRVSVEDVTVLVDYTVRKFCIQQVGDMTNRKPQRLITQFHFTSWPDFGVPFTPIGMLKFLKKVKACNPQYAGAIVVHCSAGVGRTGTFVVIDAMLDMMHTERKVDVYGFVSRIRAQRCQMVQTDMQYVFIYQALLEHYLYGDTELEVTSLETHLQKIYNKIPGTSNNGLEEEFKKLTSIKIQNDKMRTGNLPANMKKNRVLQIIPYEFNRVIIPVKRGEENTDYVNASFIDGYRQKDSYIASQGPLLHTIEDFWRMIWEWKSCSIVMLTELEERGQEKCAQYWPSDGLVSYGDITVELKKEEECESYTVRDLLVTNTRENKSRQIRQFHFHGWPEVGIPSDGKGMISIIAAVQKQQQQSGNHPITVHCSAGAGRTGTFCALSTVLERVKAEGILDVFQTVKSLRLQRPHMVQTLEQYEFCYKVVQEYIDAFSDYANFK
Chain of PP5 (P53041 whole entry): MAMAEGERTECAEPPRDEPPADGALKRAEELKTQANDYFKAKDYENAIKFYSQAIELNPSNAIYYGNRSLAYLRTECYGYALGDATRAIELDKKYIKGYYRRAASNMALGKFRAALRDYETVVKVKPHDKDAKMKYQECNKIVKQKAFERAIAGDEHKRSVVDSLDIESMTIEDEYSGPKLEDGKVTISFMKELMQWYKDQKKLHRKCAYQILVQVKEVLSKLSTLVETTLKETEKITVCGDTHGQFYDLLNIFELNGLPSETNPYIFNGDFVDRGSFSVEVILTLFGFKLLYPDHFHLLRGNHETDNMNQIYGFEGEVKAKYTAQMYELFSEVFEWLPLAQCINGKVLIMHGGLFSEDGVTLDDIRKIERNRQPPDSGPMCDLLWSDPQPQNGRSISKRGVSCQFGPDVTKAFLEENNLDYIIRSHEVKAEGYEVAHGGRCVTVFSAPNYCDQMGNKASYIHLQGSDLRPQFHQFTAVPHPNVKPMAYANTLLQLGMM
Chain of FAP1 (Q12923 whole entry): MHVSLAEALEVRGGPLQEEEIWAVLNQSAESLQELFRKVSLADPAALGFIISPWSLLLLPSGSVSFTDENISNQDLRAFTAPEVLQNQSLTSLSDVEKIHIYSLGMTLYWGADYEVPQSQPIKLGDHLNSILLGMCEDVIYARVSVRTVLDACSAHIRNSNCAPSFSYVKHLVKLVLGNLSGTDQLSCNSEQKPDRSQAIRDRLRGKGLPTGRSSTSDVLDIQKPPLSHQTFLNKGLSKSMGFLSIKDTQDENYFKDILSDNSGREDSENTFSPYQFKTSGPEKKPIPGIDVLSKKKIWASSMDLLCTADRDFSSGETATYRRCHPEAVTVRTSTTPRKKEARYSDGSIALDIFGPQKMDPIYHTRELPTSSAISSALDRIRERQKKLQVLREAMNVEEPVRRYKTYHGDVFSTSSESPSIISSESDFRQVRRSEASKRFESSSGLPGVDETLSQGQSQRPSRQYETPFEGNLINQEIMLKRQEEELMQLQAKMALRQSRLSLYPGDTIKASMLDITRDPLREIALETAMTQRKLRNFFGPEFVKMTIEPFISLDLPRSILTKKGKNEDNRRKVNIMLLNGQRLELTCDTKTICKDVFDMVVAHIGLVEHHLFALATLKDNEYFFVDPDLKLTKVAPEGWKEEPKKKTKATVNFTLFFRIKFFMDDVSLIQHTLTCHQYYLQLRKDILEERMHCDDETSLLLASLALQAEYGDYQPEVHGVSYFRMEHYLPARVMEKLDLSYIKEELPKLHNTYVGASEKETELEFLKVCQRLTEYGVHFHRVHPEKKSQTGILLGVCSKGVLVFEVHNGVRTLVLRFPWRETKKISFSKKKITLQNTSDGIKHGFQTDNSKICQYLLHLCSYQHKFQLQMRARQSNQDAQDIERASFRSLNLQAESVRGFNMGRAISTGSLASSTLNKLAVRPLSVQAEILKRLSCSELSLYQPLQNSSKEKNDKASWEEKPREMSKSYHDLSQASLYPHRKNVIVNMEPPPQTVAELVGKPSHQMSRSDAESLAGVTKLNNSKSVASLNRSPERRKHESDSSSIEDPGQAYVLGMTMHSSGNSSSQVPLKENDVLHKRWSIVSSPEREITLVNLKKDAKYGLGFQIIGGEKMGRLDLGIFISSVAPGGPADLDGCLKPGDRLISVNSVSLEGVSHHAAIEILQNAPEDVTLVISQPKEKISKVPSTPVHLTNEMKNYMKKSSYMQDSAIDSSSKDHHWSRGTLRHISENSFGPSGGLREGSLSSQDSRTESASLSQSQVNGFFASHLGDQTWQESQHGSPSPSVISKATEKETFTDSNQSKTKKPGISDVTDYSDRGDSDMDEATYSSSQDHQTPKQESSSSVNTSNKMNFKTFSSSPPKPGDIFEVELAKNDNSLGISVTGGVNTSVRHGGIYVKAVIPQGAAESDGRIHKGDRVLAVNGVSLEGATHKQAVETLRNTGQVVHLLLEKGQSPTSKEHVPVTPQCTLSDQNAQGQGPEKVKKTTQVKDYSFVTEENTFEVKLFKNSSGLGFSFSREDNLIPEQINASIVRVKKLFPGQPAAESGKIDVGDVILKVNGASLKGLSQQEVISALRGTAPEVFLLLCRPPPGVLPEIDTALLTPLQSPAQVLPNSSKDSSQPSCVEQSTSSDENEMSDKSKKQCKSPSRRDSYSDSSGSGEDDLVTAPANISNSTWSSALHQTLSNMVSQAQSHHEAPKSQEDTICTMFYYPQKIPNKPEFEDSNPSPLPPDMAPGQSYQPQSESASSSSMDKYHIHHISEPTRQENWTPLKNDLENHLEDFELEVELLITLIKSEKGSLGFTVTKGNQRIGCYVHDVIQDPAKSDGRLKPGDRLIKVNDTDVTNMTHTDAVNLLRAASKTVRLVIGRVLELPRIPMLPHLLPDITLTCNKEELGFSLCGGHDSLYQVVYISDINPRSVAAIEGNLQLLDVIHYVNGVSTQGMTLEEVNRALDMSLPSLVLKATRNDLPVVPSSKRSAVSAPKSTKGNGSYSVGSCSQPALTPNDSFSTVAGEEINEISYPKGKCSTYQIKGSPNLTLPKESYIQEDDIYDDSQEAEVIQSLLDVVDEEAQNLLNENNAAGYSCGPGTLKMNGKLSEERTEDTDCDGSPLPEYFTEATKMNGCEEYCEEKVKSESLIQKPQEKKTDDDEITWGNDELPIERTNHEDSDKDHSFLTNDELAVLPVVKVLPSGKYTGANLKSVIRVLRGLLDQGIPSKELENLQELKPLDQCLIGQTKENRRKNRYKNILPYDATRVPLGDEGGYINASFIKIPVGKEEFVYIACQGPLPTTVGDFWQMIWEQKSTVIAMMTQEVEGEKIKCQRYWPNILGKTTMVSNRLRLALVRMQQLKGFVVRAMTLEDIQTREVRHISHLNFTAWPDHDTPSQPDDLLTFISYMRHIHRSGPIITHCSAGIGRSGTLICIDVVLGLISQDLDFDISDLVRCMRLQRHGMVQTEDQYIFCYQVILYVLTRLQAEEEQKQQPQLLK
Chain of HePTP (P35236 whole entry): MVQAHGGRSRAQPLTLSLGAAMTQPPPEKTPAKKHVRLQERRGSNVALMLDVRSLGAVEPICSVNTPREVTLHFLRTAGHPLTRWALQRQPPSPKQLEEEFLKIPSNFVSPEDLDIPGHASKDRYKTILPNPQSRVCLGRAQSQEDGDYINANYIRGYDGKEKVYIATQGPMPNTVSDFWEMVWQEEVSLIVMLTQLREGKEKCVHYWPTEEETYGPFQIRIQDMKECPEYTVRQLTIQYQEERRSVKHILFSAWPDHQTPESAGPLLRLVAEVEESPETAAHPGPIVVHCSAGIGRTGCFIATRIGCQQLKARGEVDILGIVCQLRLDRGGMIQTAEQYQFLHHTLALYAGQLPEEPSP
Chain of SHP1 (P29350 whole entry): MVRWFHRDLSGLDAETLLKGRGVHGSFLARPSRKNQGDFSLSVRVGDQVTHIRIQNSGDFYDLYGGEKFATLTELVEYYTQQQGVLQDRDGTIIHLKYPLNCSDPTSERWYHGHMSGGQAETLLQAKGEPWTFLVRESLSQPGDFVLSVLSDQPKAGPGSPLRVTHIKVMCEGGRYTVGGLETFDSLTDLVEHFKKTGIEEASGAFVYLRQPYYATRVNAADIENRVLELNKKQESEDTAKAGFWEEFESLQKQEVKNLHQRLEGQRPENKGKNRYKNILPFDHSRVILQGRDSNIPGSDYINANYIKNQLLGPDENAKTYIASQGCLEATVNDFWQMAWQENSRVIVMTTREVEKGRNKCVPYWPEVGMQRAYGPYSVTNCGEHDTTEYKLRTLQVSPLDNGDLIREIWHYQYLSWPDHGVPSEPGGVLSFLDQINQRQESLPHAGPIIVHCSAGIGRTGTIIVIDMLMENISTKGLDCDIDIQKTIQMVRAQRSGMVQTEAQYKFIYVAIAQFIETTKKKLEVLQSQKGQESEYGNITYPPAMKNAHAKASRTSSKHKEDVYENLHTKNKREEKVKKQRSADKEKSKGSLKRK

Compound: NC(=O)c1cc[n+](CC2=C(C(=O)O)N3C(=O)[C@@H](NC(=O)[C@@H](c4ccccc4)S(=O)(=O)[O-])[C@H]3SC2)cc1 [Cefsulodin]
mode of SHP2 inhibition (SHP2 [1]): competitive inhibitor | mode of SHP2 inhibition (SHP2 [1]; listed as cefsulodin): competitive and reversible | stability in crystallization solution (final pH=7.1) ([2]; 20° C., with SHP2 and DTT): completely degraded within 2 days; also recorded: the majority of cefsulodin was gone after 2 d | stability in CBTP buffer at pH 9.1 ([2]; 3 h, 6 h, 12 h): degradation was further accelerated; also recorded: cefsulodin was gone after 12 h | stability in pH 5.8 MES buffer ([2]; 12 h, 1 d, 2 d): degradation of cefsulodin was negligible; also recorded: stable for at least 2 days | stability in pH 7.4 CBTP buffer ([2]; 12 h, 1 d, 2 d): degradation was obvious; also recorded: cefsulodin concentrations decreased progressively | stability under inhibition assay conditions ([2]; pH 7 and 25° C., 0 h, 3 h, 24 h and 48 h): no change in cefsulodin | increase of IC50 by replacement of R362 with alanine (SHP2/R362A): 3 fold | covalent adduct formation with SHP2 (SHP2 [3]): no covalent adduct formation; also recorded: not inhibiting SHP2 by covalent modification

IC50 (PEST): 26.5 µM | IC50 (Laforin): 2200 nM | IC50 (LMWPTP): 23.6 µM
Compound: O=C(Nc1nnc(-c2ccc(Br)cc2)s1)C(c1ccccc1)S(=O)(=O)O (stereo not shown) [Compound L319M79]

Compound: O=C(Nc1ccc(I)cc1)C(=O)Nc1ccc(NC(=O)C(c2ccccc2)S(=O)(=O)O)cc1 (stereo not shown) [Compound 2, 2-((4-(2-((4-iodophenyl)amino)-2-oxoacetamido)phenyl)amino)-2-oxo-1-phenylethanesulfonic acid]
ERK1/2 activity in SKBR3 cells in Matrigel at 20 μM (SKBR3 cells; 20 μM): partial inhibition | SKBR3 cell growth in Matrigel at 20 μM (SKBR3 cells; 20 μM): partial inhibition | ERK1/2 activity in SKBR3 cells in Matrigel at 40 μM (SKBR3 cells; 40 μM): barely detectable | SKBR3 cell growth in Matrigel at 40 μM (SKBR3 cells; 40 μM): almost completely absent | EGF-mediated ERK1/2 phosphorylation in H1975 cells [4]: reduced EGF-mediated ERK1/2 phosphorylation in a dose-dependent manner; also recorded: decrease the EGF-mediated ERK1/2 phosphorylation in a dose dependent manner | PMA-induced ERK1/2 phosphorylation [5]: no effect

Compound: Cc1c(Br)cc(NC(=O)C(c2ccccc2)S(=O)(=O)O)cc1Br (stereo not shown) [Compound L319M34]
IC50 (SHP2 [1]; pNPP at Km, pH 7.0, 25° C.): > 200 µM | IC50 (CD45): > 200 µM | IC50 (VHZ): > 200 µM | IC50 (HePTP): > 200 µM | IC50 (FAP1): > 200 µM | IC50 (Ssu72): > 200 µM | IC50 (LAR): > 200 µM | IC50 (SHP1): > 200 µM | IC50 (CDC14A): > 200 µM | IC50 (PTP1B): > 200 µM | IC50 (PP5): > 200 µM | IC50 (PTPα): > 200 µM | IC50 (MKP3): > 200 µM | IC50 (PTPβ): > 200 µM | IC50 (PTPε): > 200 µM | IC50 (Meg2): > 200 µM | IC50 (TcPTP): > 200 µM | IC50 (PTPγ): > 200 µM | IC50 (PTPσ): > 200 µM | IC50 (VHR): > 200 µM | IC50 (LYP): > 200 µM | IC50 (PTPμ): > 200 µM
